The results in this text go back to ChEMBL document CHEMBL5303761, “Data for DCP probe BI-3231” (2023).

What is called inhibition is the change of the read-out against control, counted positive when it falls. As usually defined, the Ki is the equilibrium dissociation constant of an inhibitor or competing ligand from its target. As usually defined, the IC50 is the concentration that gives 50% inhibition.

Data set [1] concerns the target Kappa-type opioid receptor (Homo sapiens) (UniProt P41145). To be noted: Compound concentration 10.0 uM.
Data set [2] deals with Sigma intracellular receptor 2 (Homo sapiens) (UniProt Q5BJF2). The settings on record: Compound concentration 10.0 uM.
Data set [3] addresses Beta-3 adrenergic receptor (Homo sapiens) (UniProt P13945). The settings on record: Compound concentration 10.0 uM.
Data set [4] deals with Mu-type opioid receptor (Homo sapiens) (UniProt P35372). The settings on record: Compound concentration 10.0 uM.
Data set [5] deals with Sodium-dependent serotonin transporter (Homo sapiens) (UniProt P31645). The data set can be described thus: SLC6A4/H Eurofins SafetyScreen44 (BI). To be noted: filed as antagonist, Compound concentration 10.0 uM.
In another data set the target is hERG (KCNH2) (Homo sapiens, UniProt Q12809). The experiment in a line: HERG_DOFETILIDE Eurofins SafetyScreen44 (BI). The settings on record: probe [3H]dofetilide, compound concentration 10 uM, read-out: % Ctrl.
Another data set addresses MAO-A (Rattus norvegicus, UniProt P21396). The data set can be described thus: MAO-A_ANTAG Eurofins SafetyScreen44 (BI). To be noted: compound concentration 10 uM, read-out: % Ctrl. The arrangement: scale not given: the % may be the effect or the level left.
Data set [6] concerns the target Beta-1 adrenergic receptor (Homo sapiens) (UniProt P08588). To be noted: Compound concentration 10.0 uM.
In data set [7] the target is 17-beta-hydroxysteroid dehydrogenase 13 (Mus musculus, UniProt Q8VCR2). The data set can be described thus: Enzymatic assay (mHSD17B13). Format: functional.
For data set [8], the target named is Estradiol 17-beta-dehydrogenase 11 (Homo sapiens, UniProt Q8NBQ5). The experiment in a line: Enzymatic assay (hHSD17B11). It counts as functional.
For data set [9], the target named is Beta-2 adrenergic receptor (Homo sapiens) (UniProt P07550). The settings on record: Compound concentration 10.0 uM.
The target of data set [10] is Cholecystokinin receptor type A (Homo sapiens) (UniProt P32238). The data set can be described thus: CCKA/H Eurofins SafetyScreen44 (BI). The settings on record: Compound concentration 10.0 uM.
Data set [11] deals with D(2) dopamine receptor (Homo sapiens) (UniProt P14416). The data set can be described thus: D2SH_AGON Eurofins SafetyScreen44 (BI). To be noted: filed as agonist, Compound concentration 10.0 uM.
Data set [12] addresses 5-hydroxytryptamine receptor 2A (Homo sapiens) (UniProt P28223). The experiment in a line: 5HT2AH_AGON Eurofins SafetyScreen44 (BI). To be noted: filed as agonist, Compound concentration 10.0 uM.
Data set [13] deals with T1, 5-hydroxytryptamine receptor 3A (Homo sapiens) (UniProt P46098).
T1 sequence (whole entry): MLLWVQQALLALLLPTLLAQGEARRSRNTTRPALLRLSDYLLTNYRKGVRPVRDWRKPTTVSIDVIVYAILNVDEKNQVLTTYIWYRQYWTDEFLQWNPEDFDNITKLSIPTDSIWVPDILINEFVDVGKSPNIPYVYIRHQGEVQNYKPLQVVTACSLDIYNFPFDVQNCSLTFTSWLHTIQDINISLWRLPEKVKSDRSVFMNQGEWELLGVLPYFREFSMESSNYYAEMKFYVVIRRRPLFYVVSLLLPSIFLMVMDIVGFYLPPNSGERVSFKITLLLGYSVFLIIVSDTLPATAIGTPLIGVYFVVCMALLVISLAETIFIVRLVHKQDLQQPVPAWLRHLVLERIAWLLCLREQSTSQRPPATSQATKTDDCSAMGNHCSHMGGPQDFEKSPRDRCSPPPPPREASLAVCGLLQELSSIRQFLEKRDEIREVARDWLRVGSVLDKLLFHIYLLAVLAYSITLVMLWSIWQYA
The settings on record: Compound concentration 10.0 uM.

For data set [14], the target named is cGMP-inhibited 3',5'-cyclic phosphodiesterase 3A (Homo sapiens) (UniProt Q14432). The data set can be described thus: PDE3A Eurofins SafetyScreen44 (BI). To be noted: Compound concentration 10.0 uM.
The target in data set [15] is T2, 5-hydroxytryptamine receptor 1A (Homo sapiens) (UniProt P08908).
T2 sequence (whole entry): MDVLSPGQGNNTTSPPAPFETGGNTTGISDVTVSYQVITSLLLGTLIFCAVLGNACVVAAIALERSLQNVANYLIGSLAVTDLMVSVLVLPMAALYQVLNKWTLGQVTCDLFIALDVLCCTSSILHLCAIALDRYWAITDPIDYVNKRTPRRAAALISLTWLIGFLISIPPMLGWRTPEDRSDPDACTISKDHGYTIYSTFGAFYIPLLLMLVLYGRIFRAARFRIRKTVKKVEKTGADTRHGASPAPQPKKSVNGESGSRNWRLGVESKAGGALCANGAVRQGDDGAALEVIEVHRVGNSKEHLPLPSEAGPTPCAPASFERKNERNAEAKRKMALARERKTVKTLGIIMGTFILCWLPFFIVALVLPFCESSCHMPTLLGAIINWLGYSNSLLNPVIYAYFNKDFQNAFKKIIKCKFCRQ
The settings on record: Compound concentration 10.0 uM.

Data set [16] addresses D(1A) dopamine receptor (Homo sapiens) (UniProt P21728). The settings on record: Compound concentration 10.0 uM.
Data set [17] deals with D(2) dopamine receptor (Homo sapiens) (UniProt P14416). To be noted: Compound concentration 10.0 uM.
In data set [18] the target is 5-hydroxytryptamine receptor 2C (Homo sapiens) (UniProt P28335). To be noted: Compound concentration 10.0 uM.
Data set [19] deals with 5-hydroxytryptamine receptor 6 (Homo sapiens) (UniProt P50406). To be noted: Compound concentration 10.0 uM.
Data set [20] deals with T3, Muscarinic acetylcholine receptor M1 (Homo sapiens) (UniProt P11229).
T3 sequence (whole entry): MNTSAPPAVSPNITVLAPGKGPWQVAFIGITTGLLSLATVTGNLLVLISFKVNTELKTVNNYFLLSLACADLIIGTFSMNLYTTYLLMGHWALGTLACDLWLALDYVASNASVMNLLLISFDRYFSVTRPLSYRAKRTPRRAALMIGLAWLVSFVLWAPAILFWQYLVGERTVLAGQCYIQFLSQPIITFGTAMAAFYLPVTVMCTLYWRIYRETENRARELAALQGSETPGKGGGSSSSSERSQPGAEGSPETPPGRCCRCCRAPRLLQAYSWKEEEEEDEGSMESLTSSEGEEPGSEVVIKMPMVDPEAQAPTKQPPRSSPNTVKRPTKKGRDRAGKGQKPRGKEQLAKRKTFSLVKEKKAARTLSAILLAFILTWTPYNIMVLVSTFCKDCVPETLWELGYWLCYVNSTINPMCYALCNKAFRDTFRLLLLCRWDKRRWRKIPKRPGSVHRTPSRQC
To be noted: Compound concentration 10.0 uM.

Sequence of Mu-type opioid receptor (Homo sapiens) (P35372 whole entry): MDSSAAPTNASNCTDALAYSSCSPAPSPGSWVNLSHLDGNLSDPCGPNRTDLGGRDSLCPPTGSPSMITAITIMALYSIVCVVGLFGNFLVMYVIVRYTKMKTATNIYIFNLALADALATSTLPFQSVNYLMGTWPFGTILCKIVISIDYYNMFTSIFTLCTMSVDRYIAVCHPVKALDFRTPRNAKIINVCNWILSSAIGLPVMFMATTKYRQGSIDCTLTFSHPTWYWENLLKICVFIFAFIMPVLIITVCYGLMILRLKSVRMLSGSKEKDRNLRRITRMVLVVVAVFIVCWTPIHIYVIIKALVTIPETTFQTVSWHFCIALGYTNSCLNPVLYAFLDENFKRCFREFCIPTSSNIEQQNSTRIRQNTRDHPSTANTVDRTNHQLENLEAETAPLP
Sequence of Beta-3 adrenergic receptor (Homo sapiens) (P13945 whole entry, looked up): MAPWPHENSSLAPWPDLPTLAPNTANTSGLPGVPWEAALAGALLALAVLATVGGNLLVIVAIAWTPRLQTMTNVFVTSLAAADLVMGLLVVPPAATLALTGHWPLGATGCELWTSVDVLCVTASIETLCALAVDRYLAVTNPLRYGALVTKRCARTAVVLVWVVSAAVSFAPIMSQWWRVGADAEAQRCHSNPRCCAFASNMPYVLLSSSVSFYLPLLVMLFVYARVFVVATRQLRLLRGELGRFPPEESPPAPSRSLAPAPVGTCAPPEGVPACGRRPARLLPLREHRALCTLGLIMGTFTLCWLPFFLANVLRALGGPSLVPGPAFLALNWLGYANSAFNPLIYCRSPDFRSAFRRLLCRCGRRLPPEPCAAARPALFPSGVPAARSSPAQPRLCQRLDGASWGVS
Sequence of D(2) dopamine receptor (Homo sapiens) (P14416 whole entry): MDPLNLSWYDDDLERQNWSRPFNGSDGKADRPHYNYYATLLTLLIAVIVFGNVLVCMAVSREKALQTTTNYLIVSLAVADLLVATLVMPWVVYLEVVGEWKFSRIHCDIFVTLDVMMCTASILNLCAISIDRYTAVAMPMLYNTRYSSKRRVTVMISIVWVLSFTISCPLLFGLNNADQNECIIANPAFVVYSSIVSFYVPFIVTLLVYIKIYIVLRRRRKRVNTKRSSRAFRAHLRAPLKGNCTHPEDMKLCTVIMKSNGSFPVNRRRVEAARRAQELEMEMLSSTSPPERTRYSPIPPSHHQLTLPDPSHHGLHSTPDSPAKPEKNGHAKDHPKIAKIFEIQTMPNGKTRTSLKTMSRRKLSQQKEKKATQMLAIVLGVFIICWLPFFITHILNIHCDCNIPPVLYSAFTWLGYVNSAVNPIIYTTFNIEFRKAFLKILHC
Sequence of Kappa-type opioid receptor (Homo sapiens) (P41145 whole entry): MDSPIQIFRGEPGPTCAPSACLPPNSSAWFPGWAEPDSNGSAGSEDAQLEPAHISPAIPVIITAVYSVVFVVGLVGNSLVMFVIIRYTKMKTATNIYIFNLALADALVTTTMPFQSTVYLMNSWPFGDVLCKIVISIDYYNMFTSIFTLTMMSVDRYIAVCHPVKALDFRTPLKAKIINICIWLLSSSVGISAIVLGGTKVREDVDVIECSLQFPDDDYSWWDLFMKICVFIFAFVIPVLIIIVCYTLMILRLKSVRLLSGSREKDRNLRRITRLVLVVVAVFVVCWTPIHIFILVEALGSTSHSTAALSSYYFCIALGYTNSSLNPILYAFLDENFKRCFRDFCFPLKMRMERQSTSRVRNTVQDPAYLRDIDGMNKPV
Sequence of 5-hydroxytryptamine receptor 2A (Homo sapiens) (P28223 whole entry): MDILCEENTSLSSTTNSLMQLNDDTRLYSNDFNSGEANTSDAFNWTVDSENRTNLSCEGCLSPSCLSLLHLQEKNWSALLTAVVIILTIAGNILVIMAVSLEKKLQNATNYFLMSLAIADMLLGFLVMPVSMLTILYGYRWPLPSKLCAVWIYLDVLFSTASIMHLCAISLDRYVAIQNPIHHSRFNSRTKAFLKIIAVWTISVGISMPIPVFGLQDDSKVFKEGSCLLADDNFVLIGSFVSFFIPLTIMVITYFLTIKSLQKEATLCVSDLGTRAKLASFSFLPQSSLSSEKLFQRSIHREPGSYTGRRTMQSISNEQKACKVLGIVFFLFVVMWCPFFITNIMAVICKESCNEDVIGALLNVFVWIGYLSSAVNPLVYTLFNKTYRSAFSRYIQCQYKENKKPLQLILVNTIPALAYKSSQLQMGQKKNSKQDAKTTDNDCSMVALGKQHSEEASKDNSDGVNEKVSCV
Sequence of Cholecystokinin receptor type A (Homo sapiens) (P32238 whole entry): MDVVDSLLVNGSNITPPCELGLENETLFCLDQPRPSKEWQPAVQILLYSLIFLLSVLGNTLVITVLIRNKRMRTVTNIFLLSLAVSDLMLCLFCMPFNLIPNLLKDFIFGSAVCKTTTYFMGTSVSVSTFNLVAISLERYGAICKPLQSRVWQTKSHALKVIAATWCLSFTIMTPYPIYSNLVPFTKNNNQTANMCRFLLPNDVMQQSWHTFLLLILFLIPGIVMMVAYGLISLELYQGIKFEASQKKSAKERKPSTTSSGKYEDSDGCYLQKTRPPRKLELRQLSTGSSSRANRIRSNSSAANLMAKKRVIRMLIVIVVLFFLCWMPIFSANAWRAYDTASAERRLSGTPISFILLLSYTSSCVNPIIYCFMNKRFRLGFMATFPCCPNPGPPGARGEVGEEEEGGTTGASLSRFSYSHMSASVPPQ
Sequence of 5-hydroxytryptamine receptor 2C (Homo sapiens) (P28335 whole entry): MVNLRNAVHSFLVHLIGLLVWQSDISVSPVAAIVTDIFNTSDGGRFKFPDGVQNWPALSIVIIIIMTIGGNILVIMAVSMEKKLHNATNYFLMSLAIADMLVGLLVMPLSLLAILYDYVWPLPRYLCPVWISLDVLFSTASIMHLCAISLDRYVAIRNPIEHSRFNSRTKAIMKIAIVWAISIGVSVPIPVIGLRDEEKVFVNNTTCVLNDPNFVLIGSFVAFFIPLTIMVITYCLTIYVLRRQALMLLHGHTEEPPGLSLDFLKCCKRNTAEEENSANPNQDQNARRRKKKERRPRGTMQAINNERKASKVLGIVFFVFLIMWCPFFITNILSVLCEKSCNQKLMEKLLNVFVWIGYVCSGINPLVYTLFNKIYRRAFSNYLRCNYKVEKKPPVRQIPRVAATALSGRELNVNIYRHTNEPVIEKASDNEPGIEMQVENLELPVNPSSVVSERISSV
Sequence of cGMP-inhibited 3',5'-cyclic phosphodiesterase 3A (Homo sapiens) (Q14432 whole entry): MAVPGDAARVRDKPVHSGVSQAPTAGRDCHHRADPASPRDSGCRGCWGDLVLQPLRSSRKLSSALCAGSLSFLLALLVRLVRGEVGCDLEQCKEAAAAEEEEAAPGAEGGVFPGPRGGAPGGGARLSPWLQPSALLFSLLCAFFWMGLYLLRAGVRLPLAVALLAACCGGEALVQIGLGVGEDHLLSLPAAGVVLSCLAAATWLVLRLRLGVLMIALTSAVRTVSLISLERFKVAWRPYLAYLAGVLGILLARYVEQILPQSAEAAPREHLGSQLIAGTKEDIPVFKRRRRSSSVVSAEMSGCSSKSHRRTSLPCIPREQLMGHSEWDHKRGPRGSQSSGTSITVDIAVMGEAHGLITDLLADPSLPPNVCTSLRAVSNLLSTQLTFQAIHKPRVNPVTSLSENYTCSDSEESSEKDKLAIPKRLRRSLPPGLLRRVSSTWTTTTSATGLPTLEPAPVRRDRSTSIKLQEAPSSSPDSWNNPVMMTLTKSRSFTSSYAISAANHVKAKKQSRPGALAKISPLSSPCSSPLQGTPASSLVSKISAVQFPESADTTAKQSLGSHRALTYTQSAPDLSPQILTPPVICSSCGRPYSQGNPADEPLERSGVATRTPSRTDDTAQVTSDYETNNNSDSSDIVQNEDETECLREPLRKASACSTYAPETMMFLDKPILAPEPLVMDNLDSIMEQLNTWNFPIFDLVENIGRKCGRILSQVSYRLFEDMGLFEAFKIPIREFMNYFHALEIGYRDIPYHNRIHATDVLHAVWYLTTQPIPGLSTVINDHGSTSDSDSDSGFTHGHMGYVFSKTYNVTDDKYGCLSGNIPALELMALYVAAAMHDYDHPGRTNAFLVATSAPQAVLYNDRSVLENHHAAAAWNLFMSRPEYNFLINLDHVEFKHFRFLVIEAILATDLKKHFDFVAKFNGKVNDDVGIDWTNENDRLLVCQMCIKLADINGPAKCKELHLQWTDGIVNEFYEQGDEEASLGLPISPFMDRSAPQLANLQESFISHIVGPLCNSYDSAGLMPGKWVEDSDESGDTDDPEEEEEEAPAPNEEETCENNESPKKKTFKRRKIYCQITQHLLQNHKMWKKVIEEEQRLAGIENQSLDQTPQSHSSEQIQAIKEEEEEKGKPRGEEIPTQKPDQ
Sequence of 5-hydroxytryptamine receptor 6 (Homo sapiens) (P50406 whole entry): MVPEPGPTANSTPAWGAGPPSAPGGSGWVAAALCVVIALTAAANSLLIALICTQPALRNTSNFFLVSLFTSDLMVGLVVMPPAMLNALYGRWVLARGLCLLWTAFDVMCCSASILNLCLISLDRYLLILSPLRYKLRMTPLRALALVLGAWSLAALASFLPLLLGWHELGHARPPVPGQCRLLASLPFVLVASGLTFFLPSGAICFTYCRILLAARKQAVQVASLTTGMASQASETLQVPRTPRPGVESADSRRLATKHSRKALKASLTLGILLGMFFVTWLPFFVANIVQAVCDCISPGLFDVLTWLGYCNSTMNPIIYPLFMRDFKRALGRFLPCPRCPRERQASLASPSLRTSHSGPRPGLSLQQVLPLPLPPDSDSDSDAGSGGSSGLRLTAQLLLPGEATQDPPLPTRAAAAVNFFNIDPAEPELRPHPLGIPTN
Sequence of Beta-2 adrenergic receptor (Homo sapiens) (P07550 whole entry, looked up): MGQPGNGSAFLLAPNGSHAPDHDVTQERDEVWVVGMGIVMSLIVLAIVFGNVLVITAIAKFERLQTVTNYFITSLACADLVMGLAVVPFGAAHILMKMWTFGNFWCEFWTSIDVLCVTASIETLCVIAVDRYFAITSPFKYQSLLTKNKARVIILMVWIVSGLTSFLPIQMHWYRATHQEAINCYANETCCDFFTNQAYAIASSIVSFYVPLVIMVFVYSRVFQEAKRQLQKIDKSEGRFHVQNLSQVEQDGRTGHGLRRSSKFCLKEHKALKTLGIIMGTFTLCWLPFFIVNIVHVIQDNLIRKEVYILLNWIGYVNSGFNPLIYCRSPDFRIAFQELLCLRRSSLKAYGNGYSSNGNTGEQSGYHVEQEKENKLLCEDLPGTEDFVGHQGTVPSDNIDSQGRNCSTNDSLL

With `CCn1c(=O)c(C)cn(Cc2nnc(-c3ccc(F)c(OC)c3F)s2)c1=O`, the inhibition in data set [1] was 11.7%; in [2], -5.43%; in [3], 6.74%; in data set [4], 12.9%; in data set [6], -1.07%; in [9], 6.43%. Also, in [13], the inhibition is 7.41%. In addition, the residual activity in data set [5] is 97%; in data set [10], 99%; in data set [11] it was 92%; in [12] it was 101%; in data set [14] it was 93%. Besides, the values for the activity at 10 µM on hERG (KCNH2) and at MAO-A were 100% (not active) and 88% (not active), respectively. In addition, the Ki in [7] is > 10 µM (not active). Besides, the IC50 in data set [8] is > 10 µM (not active).

For the compound `CCn1c(=O)c(C)cn(Cc2nnc(-c3ccc(F)c(O)c3F)s2)c1=O`, the inhibition in [15] is 29.3%; in data set [16], -6.39%; in [3] it was -4.71%; in data set [4] it was -0.02%; in data set [17], -2.66%; in data set [18], -2.92%. In addition, the inhibition in [19] is 0.69%; in [20] it was 5.93%; in data set [13], 10.6%. The residual activity in data set [5] was 106%; in data set [10], 78%; in [11], 84%; in data set [12], 84%; in data set [14] it was 94%.
